In assay [1] the target is T1, Neuraminidase (Influenza A virus, UniProt B4URF0). The assay can be described thus: Inhibition of Influenza A virus A/WSN/1933(H1N1) neuraminidase.
Assay [2] in a line: Antiviral activity against Influenza A virus (A/WSN/1933(H1N1)) infected in MDCK cells assessed as inhibition of virus-induced cytopathicity. The class given is functional, organism-based. On the technique in general: Cytopathic effects are the visible damage that an infection or toxin causes in cultured cells.
Another assay has as its system Influenza A virus. The experiment in a line: Antiviral activity against Influenza A virus (A/Singapore/1/1957 (H2N2)) infected in MDCK cells assessed as inhibition of virus-induced plaque formation. The class given is functional, organism-based.
Assay [3] has as its target T1, Neuraminidase.
The target in assay [4] is T1, Neuraminidase. The experiment in a line: Inhibition of Influenza A virus A/Vienna/83/58(H2N2) neuraminidase.

Molecules are shown by their SMILES.

T1 sequence (B4URF0 whole entry): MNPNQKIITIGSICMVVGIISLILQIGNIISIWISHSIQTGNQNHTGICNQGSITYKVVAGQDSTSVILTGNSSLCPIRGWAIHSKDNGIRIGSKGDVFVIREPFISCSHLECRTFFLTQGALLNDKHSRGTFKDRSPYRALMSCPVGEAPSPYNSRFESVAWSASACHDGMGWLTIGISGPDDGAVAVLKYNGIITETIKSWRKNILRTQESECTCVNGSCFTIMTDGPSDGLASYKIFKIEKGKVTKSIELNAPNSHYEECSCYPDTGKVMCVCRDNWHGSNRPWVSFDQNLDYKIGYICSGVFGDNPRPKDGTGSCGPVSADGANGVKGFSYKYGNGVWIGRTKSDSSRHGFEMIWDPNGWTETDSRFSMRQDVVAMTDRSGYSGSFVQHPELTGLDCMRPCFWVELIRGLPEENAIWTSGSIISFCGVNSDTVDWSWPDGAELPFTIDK

By IC50 is commonly meant the concentration needed to halve the response being measured. Take `CC(=O)N[C@H]1[C@H]([C@H](O)[C@H](O)CO)OC(C(=O)O)=C[C@@H]1NCCCCN`: the IC50 against Neuraminidase [1] was greater than 200 µM.

Regarding `CC(=O)N[C@H]1[C@H]([C@H](O)[C@H](O)CO)OC(C(=O)O)=C[C@@H]1NC(=N)NCCCCN`, at Neuraminidase [1], the IC50 was greater than 200 µM.

`CC(=O)N[C@H]1[C@H]([C@H](O)[C@H](O)CO)OC(C(=O)O)=C[C@@H]1NCCCN`: the IC50 against Neuraminidase [1] is greater than 200 µM.

`CC(=O)N[C@H]1[C@H]([C@H](O)[C@H](O)CO)OC(C(=O)O)=C[C@@H]1N(CCCN)C(=N)N` showed an IC50 on Neuraminidase [1] greater than 200 µM.

`CC(=O)N[C@H]1[C@H]([C@H](O)[C@H](O)CO)OC(C(=O)O)=C[C@@H]1NCCCC(=O)O` had an IC50 against Neuraminidase [1] of 70 µM.

Regarding `CC(=O)N[C@H]1[C@H]([C@H](O)[C@H](O)CO)OC(C(=O)O)=C[C@@H]1NC1=NCCN1`, the IC50 against Neuraminidase [1] is greater than 200 µM.

As for `CC(=O)N[C@H]1[C@H]([C@H](O)[C@H](O)CO)OC(C(=O)O)=C[C@@H]1N(CCCCN)C(=N)N`, on Neuraminidase [1], the 50% inhibitory concentration (IC50) was greater than 200 µM.

Usually EC50 stands for the concentration at which the effect is half-maximal. Regarding `CC(=O)N[C@H]1[C@H]([C@H](O)[C@H](O)CO)OC(C(=O)O)=C[C@@H]1N(CCCC(=O)O)C(=N)N`, the midpoint of inhibition against Neuraminidase [1], the IC50, lay at 7.12 µM. For the same compound, the EC50 in assay [2] came out at 52 µM.

On to `CC(=O)N[C@H]1[C@H]([C@H](O)[C@H](O)CO)OC(C(=O)O)=C[C@@H]1N=C(N)NCCCN`, for which the IC50 at Neuraminidase [1] is greater than 200 µM.

At Neuraminidase [1], `CC(=O)N[C@H]1[C@H]([C@H](O)[C@H](O)CO)OC(C(=O)O)=C[C@@H]1N(CCCC(=O)N1CCN(C)CC1)C(=N)N` yielded an IC50 of 6.5 µM. The EC50 in assay [2] came to 10.7 µM.

In turn, `CC(=O)N[C@H]1[C@H]([C@H](O)[C@H](O)CO)OC(C(=O)O)=C[C@@H]1N(CCCC(=O)N1CCOCC1)C(=N)N` came in with an IC50 on Neuraminidase [1] of 33.3 µM. The half-maximal effective concentration (EC50) in assay [2] was determined as 37.6 µM.

On Neuraminidase [1], `CC(=O)N[C@H]1[C@H]([C@H](O)[C@H](O)CO)OC(C(=O)O)=C[C@@H]1N(CCCC(=O)N1CCCCC1)C(=N)N` gave an IC50 of 23.1 µM. Besides, in assay [2], the EC50 worked out at 45 µM.

Regarding `CC(=O)N[C@H]1[C@H]([C@H](O)[C@H](O)CO)OC(C(=O)O)=C[C@@H]1N(CCCC(=O)N1CCNCC1)C(=N)N`, inhibition at Neuraminidase [1] was half-maximal at 2.15 µM (IC50). In assay [2], the EC50 was 0.77 µM.

`CC(=O)N[C@H]1[C@H]([C@H](O)[C@H](O)CO)OC(C(=O)O)=C[C@@H]1NCCCCC(=O)O` registered a half-inhibitory concentration (IC50) against Neuraminidase [1] of 80 µM.

As usually defined, the Ki is a dissociation constant, usually derived from enzyme kinetics or from competition with a known ligand. Read a high Ki as lower affinity. For the compound `CC(=O)N[C@H]1[C@H]([C@H](O)[C@H](O)CO)OC(C(=O)O)=C[C@@H]1N`, in the assay with Influenza A virus, the EC50 was 1.5 µM. At Neuraminidase [3], the Ki was 0.04 µM.

Regarding `CC(=O)N[C@H]1[C@H]([C@H](O)[C@H](O)CO)OC(C(=O)O)=C[C@@H]1O` [NEU5AC2EN], the IC50 against Neuraminidase [4] was 190 µM.

In the case of `CC(=O)N[C@H]1[C@H]([C@H](O)[C@H](O)CO)OC(C(=O)O)=C[C@@H]1NC(=N)N` [ZANAMIVIR], in assay [2], the EC50 stood at 0.013 µM.

The values above are taken from ChEMBL document CHEMBL1165924 (Bioorg Med Chem, 2010).
